Test results as given in ChEMBL document CHEMBL1201862, “PubChem BioAssay data set” (2004).
Active and inactive are the calls of the source.

How the values were obtained:
[1] = target: Glucose-6-phosphate 1-dehydrogenase (Homo sapiens, UniProt P11413); test: inhibition of Homo sapiens G6PD, dose series – biochemical, fluorescence, selectivity assay for P. falciparum G6PD inhibitor project, dose response (AID 504792); assay type: functional
[2] = Luminescence Cell-Based Dose Response HTS to Identify Inhibitors of 5'UTR Stem-Loop Driven Prion Protein mRNA Translation in H4 Neuroglioblastoma Cells. [Related pubchem assays: 1827 (Project Summary), 1813 (Primary HTS)]; assay type: functional
[3] = alpha-synuclein stem-loop luciferase translation blockers – H4 neuroglioma cells, luminescence, confirmation (AID 1988); assay type: functional, cell-based
[4] = luciferase reporter signal suppression in cells – H4 neuroglioma cells, luminescence, dose response (AID 1990); assay type: functional, cell-based
[5] = target: DNA dC->dU-editing enzyme APOBEC-3A (Homo sapiens, UniProt P31941); test: Dose Response confirmation of small molecule APOBEC3A DNA Deaminase Inhibitors via a fluorescence-based single-stranded DNA deaminase assay. [Related pubchem assays (depositor defined):AID493011, AID493024]; assay type: functional
Sequence of DNA dC->dU-editing enzyme APOBEC-3A (P31941 whole entry): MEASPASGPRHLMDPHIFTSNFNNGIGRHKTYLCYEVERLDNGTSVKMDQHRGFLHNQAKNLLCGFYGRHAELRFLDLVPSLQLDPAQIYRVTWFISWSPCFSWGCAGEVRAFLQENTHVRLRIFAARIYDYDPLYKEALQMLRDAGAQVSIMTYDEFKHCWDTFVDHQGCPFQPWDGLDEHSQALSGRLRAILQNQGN

[6] = target: DNA dC->dU-editing enzyme APOBEC-3G (Homo sapiens, UniProt Q9HC16); assay type: functional;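 also: Dose-response counterscreen measuring inhibition of APOBEC3G DNA deaminase activity, run while confirming APOBEC3A inhibitors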
Sequence of DNA dC->dU-editing enzyme APOBEC-3G (Q9HC16 whole entry): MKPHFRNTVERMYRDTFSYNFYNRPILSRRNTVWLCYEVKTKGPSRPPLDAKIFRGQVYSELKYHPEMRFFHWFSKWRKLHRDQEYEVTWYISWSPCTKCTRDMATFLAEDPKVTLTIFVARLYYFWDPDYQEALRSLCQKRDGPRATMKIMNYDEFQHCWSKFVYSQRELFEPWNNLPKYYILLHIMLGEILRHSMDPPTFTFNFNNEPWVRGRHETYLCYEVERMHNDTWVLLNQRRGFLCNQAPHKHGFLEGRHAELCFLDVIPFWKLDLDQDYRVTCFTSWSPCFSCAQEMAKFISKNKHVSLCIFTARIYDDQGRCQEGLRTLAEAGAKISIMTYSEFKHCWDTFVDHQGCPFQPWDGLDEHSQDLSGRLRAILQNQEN

[7] = NIH-3T3 fibroblast cytotoxicity, dose response, cytotoxicity control, cell-based, fluorescence, Alamar Blue, secondary assay (AID 2327); assay type: functional;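 also: NIH-3T3 mouse fibroblasts cultured with fluconazole at 8 µg/mL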
[8] = fluconazole-exposed Candida albicans growth modulators – fluorescence, retest, confirmation (AID 2467); assay type: functional, cell-based
[9] = target: T1, Short transient receptor potential channel 4 (Mus musculus, UniProt Q9QUQ5); test: calcium entry via TRPC4 opening agents – cell-based, HEK293 TRPC4/mu-opioid, Fluo-4 calcium, dose response (AID 434937); assay type: functional
T1 sequence (Q9QUQ5 whole entry): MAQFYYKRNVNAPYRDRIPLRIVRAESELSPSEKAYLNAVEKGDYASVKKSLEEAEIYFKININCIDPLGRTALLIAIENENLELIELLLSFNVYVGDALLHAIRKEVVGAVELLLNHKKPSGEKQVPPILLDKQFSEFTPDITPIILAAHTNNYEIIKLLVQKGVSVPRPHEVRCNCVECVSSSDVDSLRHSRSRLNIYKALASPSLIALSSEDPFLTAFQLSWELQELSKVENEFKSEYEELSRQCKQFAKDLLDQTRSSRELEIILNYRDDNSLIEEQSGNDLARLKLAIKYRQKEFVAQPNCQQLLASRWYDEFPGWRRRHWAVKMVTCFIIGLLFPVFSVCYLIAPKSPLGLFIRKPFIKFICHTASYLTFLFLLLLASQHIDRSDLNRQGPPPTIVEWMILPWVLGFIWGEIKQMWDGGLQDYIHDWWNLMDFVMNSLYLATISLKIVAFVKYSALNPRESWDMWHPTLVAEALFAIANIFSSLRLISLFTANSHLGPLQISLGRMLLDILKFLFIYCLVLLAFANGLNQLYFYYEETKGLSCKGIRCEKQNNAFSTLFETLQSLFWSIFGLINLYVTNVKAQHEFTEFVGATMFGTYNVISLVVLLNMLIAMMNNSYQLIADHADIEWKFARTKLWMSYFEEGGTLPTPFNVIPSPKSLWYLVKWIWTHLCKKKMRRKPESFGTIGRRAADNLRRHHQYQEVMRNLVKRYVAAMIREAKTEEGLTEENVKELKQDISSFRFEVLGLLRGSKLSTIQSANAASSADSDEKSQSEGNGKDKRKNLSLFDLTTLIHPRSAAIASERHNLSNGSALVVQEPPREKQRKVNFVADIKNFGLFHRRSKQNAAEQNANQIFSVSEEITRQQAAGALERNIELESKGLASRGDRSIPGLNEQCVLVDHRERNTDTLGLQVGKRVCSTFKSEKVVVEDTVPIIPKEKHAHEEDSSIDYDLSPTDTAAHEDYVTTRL

[10] = target: T2, Histone-lysine N-methyltransferase NSD2 (Homo sapiens, UniProt O96028); assay type: biochemical
T2 sequence (O96028 whole entry): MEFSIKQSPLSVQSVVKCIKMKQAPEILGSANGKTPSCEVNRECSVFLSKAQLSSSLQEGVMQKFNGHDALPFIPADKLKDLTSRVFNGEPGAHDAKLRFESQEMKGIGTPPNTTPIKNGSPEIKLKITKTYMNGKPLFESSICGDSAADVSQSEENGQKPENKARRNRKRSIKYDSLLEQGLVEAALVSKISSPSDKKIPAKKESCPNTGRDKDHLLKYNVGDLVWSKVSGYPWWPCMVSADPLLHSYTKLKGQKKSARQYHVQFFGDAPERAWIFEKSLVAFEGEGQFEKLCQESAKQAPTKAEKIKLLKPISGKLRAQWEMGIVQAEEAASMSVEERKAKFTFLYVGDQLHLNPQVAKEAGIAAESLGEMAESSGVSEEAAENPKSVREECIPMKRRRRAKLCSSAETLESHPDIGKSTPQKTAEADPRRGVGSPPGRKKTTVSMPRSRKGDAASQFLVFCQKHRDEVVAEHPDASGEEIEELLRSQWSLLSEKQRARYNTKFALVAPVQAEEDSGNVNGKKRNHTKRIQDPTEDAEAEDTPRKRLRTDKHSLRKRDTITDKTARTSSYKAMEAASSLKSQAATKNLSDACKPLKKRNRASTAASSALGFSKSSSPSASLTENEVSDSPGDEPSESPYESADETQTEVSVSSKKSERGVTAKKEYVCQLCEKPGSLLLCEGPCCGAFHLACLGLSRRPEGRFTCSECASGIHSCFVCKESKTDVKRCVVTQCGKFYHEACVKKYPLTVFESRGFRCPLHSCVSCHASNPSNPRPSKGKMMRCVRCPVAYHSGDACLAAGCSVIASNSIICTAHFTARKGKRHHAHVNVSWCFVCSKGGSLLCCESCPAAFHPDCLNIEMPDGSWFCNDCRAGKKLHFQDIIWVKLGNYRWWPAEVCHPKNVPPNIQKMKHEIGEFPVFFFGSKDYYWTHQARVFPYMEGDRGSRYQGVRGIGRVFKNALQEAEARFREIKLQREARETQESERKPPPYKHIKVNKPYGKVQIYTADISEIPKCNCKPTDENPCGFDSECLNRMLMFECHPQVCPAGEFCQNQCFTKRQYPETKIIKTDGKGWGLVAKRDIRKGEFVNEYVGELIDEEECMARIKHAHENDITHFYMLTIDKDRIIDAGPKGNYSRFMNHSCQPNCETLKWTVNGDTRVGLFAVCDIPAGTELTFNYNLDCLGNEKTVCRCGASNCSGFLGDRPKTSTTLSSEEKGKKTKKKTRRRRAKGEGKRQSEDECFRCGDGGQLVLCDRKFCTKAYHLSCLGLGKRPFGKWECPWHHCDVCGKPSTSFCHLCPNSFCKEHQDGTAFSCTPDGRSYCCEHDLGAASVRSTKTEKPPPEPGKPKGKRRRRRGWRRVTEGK

[11] = target: Cytochrome P450 2C9 (Homo sapiens, UniProt P11712)
Sequence of Cytochrome P450 2C9 (P11712 whole entry): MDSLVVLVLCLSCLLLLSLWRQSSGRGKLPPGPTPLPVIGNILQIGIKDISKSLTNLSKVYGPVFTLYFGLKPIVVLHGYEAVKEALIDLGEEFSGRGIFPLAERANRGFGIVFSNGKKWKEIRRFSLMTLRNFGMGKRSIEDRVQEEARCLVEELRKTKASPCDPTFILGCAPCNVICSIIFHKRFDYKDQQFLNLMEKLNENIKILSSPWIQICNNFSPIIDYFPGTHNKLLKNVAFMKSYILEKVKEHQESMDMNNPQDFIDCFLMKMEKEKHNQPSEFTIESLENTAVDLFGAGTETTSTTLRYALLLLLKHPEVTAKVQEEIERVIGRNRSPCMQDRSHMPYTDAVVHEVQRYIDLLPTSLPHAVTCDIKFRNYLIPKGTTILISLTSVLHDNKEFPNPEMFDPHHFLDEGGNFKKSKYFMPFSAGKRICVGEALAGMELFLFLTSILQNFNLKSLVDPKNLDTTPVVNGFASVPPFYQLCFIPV

[12] = target: T3, Leucine aminopeptidase (Plasmodium falciparum 3D7, UniProt Q8IL11); test: P. falciparum M17LAP inhibitors, primary screen, biochemical, fluorogenic H-Leu-NHMec substrate, 1536-well (AID 1619); assay type: functional
T3 sequence (Q8IL11 whole entry): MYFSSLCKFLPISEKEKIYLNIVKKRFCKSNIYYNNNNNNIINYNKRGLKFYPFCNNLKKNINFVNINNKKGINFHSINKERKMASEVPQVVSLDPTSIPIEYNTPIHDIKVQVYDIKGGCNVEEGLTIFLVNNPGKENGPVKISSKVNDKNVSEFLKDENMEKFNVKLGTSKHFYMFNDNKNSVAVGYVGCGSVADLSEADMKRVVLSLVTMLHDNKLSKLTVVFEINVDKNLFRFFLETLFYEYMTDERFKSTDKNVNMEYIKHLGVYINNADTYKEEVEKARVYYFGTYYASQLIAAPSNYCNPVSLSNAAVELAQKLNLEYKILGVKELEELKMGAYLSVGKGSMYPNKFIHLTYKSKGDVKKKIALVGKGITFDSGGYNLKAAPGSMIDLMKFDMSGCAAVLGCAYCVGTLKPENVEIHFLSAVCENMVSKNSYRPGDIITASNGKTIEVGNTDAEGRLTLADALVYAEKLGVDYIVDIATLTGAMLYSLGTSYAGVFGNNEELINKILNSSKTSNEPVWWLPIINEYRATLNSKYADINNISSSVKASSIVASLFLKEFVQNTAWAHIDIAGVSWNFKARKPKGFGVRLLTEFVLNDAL

[13] = target: Cytochrome P450 2C19 (Homo sapiens, UniProt P33261); test: Cytochrome panel assay with activity outcomes. Panel member name: p450-cyp2c19 Compounds with AC50 equal or less than 10 uM are considered active; assay type: functional; conditions: read-out: AC50
Sequence of Cytochrome P450 2C19 (P33261 whole entry): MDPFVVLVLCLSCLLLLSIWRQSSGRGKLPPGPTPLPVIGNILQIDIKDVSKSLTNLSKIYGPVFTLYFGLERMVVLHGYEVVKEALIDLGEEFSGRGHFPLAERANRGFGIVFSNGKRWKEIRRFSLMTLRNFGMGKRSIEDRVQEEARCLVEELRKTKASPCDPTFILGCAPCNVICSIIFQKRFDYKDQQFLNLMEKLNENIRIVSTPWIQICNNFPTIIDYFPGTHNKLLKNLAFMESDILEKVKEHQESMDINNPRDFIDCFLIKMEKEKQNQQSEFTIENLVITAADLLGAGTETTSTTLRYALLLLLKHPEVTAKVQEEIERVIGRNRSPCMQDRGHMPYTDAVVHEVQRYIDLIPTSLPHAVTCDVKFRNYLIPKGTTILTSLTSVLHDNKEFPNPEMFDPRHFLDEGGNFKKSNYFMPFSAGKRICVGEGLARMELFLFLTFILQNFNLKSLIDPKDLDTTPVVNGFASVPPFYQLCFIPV

[14] = Luminescence Cell-Based Dose Retest to Confirm Inhibitors of Cancer Stem Cells. [Related pubchem assays (depositor defined):AID2717, AID2721]; assay type: functional; conditions: Homo sapiens
[15] = target: Voltage-dependent T-type calcium channel subunit alpha-1H (Homo sapiens, UniProt O95180); assay type: functional;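 also: channel activity triggered by adding a high calcium stimulation buffer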
Sequence of Voltage-dependent T-type calcium channel subunit alpha-1H (O95180 whole entry): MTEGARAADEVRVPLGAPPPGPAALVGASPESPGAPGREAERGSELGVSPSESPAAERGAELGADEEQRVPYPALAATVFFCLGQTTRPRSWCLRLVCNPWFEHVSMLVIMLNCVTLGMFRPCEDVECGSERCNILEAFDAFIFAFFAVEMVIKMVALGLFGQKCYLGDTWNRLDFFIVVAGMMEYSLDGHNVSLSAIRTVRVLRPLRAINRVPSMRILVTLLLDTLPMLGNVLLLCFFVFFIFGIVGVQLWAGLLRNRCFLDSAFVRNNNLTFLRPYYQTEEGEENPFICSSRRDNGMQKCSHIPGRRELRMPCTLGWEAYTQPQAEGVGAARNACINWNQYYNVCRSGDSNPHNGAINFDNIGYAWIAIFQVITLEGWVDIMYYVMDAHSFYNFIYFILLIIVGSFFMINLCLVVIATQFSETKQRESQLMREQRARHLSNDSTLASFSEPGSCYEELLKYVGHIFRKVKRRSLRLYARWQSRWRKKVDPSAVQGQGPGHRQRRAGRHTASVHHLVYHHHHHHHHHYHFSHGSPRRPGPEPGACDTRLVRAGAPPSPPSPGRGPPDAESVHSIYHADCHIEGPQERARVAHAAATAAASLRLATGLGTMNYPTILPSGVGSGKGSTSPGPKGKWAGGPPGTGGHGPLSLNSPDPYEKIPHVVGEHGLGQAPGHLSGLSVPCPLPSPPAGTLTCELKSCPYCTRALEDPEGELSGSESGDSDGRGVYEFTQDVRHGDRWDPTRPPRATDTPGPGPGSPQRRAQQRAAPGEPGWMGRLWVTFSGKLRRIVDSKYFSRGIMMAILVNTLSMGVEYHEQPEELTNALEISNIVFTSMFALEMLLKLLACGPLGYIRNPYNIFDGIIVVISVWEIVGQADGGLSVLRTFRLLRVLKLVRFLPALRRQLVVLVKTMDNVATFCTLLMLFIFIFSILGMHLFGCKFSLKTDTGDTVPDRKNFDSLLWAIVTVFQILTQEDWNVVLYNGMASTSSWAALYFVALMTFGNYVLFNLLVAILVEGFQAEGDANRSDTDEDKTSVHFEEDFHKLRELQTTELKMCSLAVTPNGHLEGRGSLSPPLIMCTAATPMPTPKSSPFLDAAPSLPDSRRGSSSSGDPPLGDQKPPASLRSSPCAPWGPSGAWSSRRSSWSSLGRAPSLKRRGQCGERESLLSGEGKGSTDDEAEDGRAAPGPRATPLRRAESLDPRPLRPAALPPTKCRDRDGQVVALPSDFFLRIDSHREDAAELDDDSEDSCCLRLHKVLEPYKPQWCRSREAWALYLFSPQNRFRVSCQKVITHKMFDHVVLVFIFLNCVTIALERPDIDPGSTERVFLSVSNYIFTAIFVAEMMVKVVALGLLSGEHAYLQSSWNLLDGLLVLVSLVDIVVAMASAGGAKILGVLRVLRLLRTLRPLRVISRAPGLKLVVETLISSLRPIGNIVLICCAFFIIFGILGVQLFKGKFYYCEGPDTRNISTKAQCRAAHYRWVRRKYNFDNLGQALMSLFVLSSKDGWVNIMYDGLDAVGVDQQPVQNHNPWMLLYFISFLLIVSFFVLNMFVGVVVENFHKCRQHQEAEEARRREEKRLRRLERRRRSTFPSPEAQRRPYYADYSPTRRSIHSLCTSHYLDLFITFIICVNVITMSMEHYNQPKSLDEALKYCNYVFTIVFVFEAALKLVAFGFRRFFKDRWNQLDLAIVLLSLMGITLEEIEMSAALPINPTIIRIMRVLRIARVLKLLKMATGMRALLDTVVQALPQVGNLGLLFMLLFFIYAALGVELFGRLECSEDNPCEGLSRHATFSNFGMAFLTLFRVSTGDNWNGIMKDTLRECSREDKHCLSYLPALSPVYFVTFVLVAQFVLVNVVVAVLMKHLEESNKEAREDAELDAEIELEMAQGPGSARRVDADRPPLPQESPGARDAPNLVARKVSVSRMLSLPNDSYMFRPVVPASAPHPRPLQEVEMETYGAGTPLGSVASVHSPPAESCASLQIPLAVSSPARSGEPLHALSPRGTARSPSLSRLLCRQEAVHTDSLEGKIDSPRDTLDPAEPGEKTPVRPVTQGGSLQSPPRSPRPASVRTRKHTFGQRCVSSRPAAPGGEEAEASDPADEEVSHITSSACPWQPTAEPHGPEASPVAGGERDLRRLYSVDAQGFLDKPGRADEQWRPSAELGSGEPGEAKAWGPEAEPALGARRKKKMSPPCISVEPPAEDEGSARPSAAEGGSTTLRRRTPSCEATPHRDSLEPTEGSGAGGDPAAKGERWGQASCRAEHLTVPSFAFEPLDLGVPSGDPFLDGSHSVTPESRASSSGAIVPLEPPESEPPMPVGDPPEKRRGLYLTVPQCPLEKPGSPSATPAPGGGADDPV

[16] = tested on: Streptococcus sp. 'group A'; test: Streptococcus pyogenes SK(-)GAS viability under kanamycin – luminescence, BacTiterGlo, confirmation, counter-screen for streptokinase expression inhibitor project, dose response (AID 1900); assay type: functional, organism-based
[17] = tested on: Streptococcus; test: GAS UMAA2166 growth inhibition – luminescence, BacTiterGlo, counter-screen for streptokinase expression inhibitor project, dose response (AID 1915); assay type: functional, organism-based;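 also: potency for reduction of bacterial viability or growth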
[18] = target: T4, Streptokinase A (Streptococcus pyogenes serotype M1, UniProt P10520); test: viability-normalized secreted streptokinase activity reduction – plasminogen activation absorbance, OD405, dose response (AID 1914); assay type: functional, Streptococcus pyogenes M1 GAS;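 also: secreted streptokinase activity via plasminogen activation per viability signal from cell pellet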
T4 sequence (P10520 whole entry): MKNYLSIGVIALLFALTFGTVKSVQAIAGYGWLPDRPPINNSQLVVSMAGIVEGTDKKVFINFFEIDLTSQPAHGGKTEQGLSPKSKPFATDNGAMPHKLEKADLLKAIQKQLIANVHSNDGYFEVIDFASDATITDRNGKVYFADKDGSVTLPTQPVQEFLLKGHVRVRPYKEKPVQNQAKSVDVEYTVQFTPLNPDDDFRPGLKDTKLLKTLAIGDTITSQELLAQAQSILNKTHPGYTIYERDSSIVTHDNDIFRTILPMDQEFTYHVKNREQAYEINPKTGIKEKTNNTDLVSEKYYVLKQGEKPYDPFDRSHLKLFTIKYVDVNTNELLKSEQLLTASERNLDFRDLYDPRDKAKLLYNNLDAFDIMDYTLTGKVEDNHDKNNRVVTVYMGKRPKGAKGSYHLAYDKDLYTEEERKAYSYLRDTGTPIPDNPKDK

Sequence of Glucose-6-phosphate 1-dehydrogenase (P11413 whole entry): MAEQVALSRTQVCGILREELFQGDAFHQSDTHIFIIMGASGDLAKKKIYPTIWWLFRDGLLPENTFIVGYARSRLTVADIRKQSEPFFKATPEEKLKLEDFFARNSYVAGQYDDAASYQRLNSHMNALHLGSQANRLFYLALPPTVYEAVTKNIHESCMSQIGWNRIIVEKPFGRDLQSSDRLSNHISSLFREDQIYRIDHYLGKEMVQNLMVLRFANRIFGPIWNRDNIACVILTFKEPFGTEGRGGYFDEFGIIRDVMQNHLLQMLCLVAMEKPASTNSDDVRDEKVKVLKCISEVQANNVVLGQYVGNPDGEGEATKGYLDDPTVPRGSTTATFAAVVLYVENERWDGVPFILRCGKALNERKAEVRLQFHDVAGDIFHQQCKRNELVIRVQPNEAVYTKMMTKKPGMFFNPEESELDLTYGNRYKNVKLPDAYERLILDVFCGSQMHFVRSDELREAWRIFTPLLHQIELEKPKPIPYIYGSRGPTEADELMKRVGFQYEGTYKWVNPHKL

With `CN(C)c1cccc2c1c(NC(=O)c1ccc(Cl)cc1)nn2C` the IC50 [1] was > 80 µM (inactive), the EC50 [2] was > 120 µM (not active) and the EC50 [3] was 24.2 µM (active). For the same compound, the EC50 [4] was > 120 µM (not active).

For `CC1=CC(C)C(C[N+]2(C)CCCCC2)C(C)C1` (centres undefined), the IC50 [5] was 6.16 µM (active) and the IC50 [6] was 6.31 µM (active).

With `CCCCC(=O)NNC(=S)NC(=O)c1ccc(C)cc1` the EC50 [7] was > 150 µM (inconclusive), the EC50 [8] was 1.43 µM (active) and the EC50 [9] was 2.99 µM (active).

With `O=[N+]([O-])c1ccc(N2CCCC2)cc1N1CCCC1` the AC50 [10] was > 20 µM (inactive) and the AC50 [11] was “inconclusive”.

In the case of `O=C1Nc2ccc(F)cc2C12SCCS2`, the AC50 [11] is reported as “inconclusive”.

For `COc1ccc(NC(=O)CN2c3cccc4cccc(c34)S2(=O)=O)cc1`, the AC50 [11] was “inconclusive” and the IC50 [12] was 3.84 µM (active).

With `Cc1ccc2[nH]c(SCC(=O)NC3CCCc4ccccc43)nc2c1` (centres undefined) the IC50 [1] was > 80 µM (inactive).

For `CC(C)CC1CCCCC1OC(=O)C[N+]1(C)CCCCC1` (centres undefined), the IC50 [5] was 2.2 µM (active) and the IC50 [6] was 2.29 µM (active).

For `COc1ccc(NC(=O)c2cc(C(C)C)on2)cc1OC`, the AC50 [13] was 20 µM (inconclusive) and the AC50 [11] was “inconclusive”.

For `CCn1c(N)[n+](CC(=O)Nc2ccc(SC(F)F)cc2)c2ccccc21`, the EC50 [9] was 4.22 µM (active).

With `C[n+]1ccccc1/C=C/c1ccc2ncccc2c1` the IC50 [5] was 0.892 µM (active) and the IC50 [6] was 1.92 µM (active).

In the case of `Cc1cc(-c2ccc(C)c(S(=O)(=O)NCCCN(Cc3ccccc3)C(C)C)c2)on1`, the EC50 [9] is reported as 1.33 µM (active).

With `CCOC(=O)C1(CCOc2ccccc2)CCN(Cc2ccc(NC(C)=O)cc2)CC1` the EC50 [9] was 0.211 µM (active).

With `O/N=C(\c1ccc(Cl)cc1Cl)c1ncc(C(F)(F)F)cc1Cl` the AC50 [14] was 8.81 µM (active), the EC50 [15] was 2.11 µM (active) and the EC50 [16] was 10.6 µM (active). For the same compound, the EC50 [17] was > 150 µM (not active) and the EC50 [18] was 35.2 µM (active).
